Source: patent US12084445B2, “Broad-spectrum carbapenems” (VenatoRx Pharmaceuticals, Inc., priority 2018, dated 2024)
Read-outs that look alike come from different tables or passages of the source.

Assays:
Assay type in all cases: cell-based
[1] = test system: S. aureus ATCC 33591 (methicillin-resistant); assay: broth microdilution MIC assay, S. aureus ATCC 33591; settings: Staphylococcus aureus
Protocol: (§1) To determine the ability of test compounds to potentiate the inhibition of the growth of bacterial strains, classic cell-based broth microdilution MIC assays were employed. MIC assays are performed according to CLSI methods except where otherwise noted (CLSI, 2011 and CLSI, 2009). The reference strains S. aureus ATCC 29213 (methicillin sensitive), S. aureus ATCC 33591 (methicillin-resistant), E. coli ATCC 25922 (wild-type/QC strain), P. aeruginosa ATCC 27853 (wild-type/QC strain), and the clinical isolate P. aeruginosa PA 8 were used to determine the ability of the exemplary carbapenem compounds to inhibit bacterial growth. An expanded panel of methicillin resistance S. aureus (MRSA) and Pseudomonas was also used to determine the ability of exemplary carbapenem compounds to inhibit bacterial growth across a broader representation of those species. To determine activity in MRSA and in addition to S. aureus ATCC 33591, S. aureus USA 300, USA 400 and USA 600, some of the most common clones found to cause human infection, were also used. To further gauge the impact on the carbapenem compounds due to various resistance mechanisms in Pseudomonas, the following strains were included: P. aeruginosa 35151 (hyper-permeable strain), P. aeruginosa AmexAB-OprM (an efflux pump knockout), and P. aeruginosa PA 3 (a clinical isolate of reduced carbapenem susceptibility). Briefly, cryo-preserved bacterial cultures of clinical strains are streaked for isolation on appropriate agar medium, in this case Mueller Hinton II agar. Following incubation to allow formation of colonies, these plates are sealed with parafilm and stored refrigerated for up to two weeks. For preparation of assay inocula and to ensure low variability, at least 5 colonies are picked from the agar plates with an inoculating loop and aseptically transferred to a culture tube containing 3 mL of Mueller-Hinton Broth (supplemented with divalent cations to required levels based on Manufacturers' specification). The broth culture is grown for 3-5 hours at 37° C. with shaking at 200 rpm. Meanwhile, 2-fold serial dilutions of test compounds are conducted in a 96 well plate with a final volume of 75 μL per well at 2-fold the final desired concentration. After the dilution plates are set up the growing cultures are then diluted in a cuvette containing MH II broth and the optical density is measured at 600 nm. Inocula are diluted such that 75 μL of this culture in Mueller-Hinton Broth results in a starting bacterial concentration of 5×10^5 CFU/mL when added to the dilution plates. The plates are incubated 16-20 hours at 37° C. The MIC is read visually as the lowest concentration well with no bacterial growth.
(§2) Representative results are shown in Tables 3, 4, and 5 where A represents an MIC>32 μg/mL, B represents an MIC between 8 and 32 μg/mL inclusive, C represents an MIC between 1 and 4 μg/mL inclusive, and D represents an MIC of <1 μg/mL. NT=Not Tested.

[2] = test system: E. coli ATCC 25922 (wild-type/QC strain); assay: broth microdilution MIC assay, E. coli ATCC 25922; settings: Escherichia coli
Protocol: as §1, §2

[3] = test system: P. aeruginosa ATCC 27853 (wild-type/QC strain); assay: broth microdilution MIC assay, P. aeruginosa ATCC 27853; settings: Pseudomonas aeruginosa
Protocol: as §1, §2

[4] = test system: clinical isolate P. aeruginosa PA 8; assay: broth microdilution MIC assay, P. aeruginosa PA 8; settings: Pseudomonas aeruginosa; Table 3; P. aeruginosa PA8
Protocol: as §1, §2

S. aureus USA 300 = assay: broth microdilution MIC assay, S. aureus USA 300; settings: Staphylococcus aureus
Protocol: as §1, §2

S. aureus USA600 = assay: broth microdilution MIC assay, S. aureus USA 600; settings: Staphylococcus aureus
Protocol: as §1, §2

[5] = test system: P. aeruginosa 35151 (hyper-permeable strain); assay: broth microdilution MIC assay, P. aeruginosa 35151; settings: Pseudomonas aeruginosa, read-out: P. aeruginosa 35151 MIC
Protocol: as §1, §2

[6] = test system: P. aeruginosa ΔmexAB-OprM (an efflux pump knockout); assay: broth microdilution MIC assay, P. aeruginosa ΔmexAB-OprM; settings: Pseudomonas aeruginosa, 20 h, read-out: P. aeruginosa ΔmexAB-OprM MIC
Protocol: as §1, §2

[7] = ATCC33591, Table 4, S. aureus 33591, read-out: S. aureus 33591 MIC
[8] = ATCC25922, Table 4, E. coli 25922, read-out: E. coli 25922 MIC
[9] = ATCC27853, Table 5, P. aeruginosa 27853, read-out: P. aeruginosa 27853 MIC
[10] = Table 4, S. aureus USA300, read-out: S. aureus USA300 MIC
[11] = Table 4, S. aureus USA600, read-out: S. aureus USA600 MIC

Row | SMILES | MIC ([1]; ATCC 33591 / MRSA, Table 3, S. aureus 33591 (MRSA), read-out: S. aureus 33591 (MRSA) MIC) | MIC ([2]; ATCC25922, Table 3, E. coli 25922, read-out: E. coli 25922 MIC) | MIC ([3]; ATCC27853, Table 3, P. aeruginosa 27853, read-out: P. aeruginosa 27853 MIC) | MIC [4] | MIC [1, 7] | MIC [2, 8] | MIC [3, 9] | MIC (S. aureus USA 300; [10]) | MIC (S. aureus USA600; [11]) | MIC [5] | MIC [6] | MIC ([1]; ATCC33591, read-out: S. aureus 33591 MIC) | MIC ([2]; ATCC25922, read-out: E. coli 25922 MIC) | MIC ([3]; ATCC27853, read-out: P. aeruginosa 27853 MIC) | MIC (S. aureus USA 300; USA300, read-out: S. aureus USA300 MIC) | MIC (S. aureus USA600; USA600, read-out: S. aureus USA600 MIC)
1 | C[C@@H](O)[C@H]1C(=O)N2C(C(=O)O)=C(S[C@@H]3CCN(Cc4ccc(C(N)CN)cc4)C3)[C@H](C)[C@H]12 (stereo partly drawn) [Example 34, (4R,5S,6S)-3-(((3R)-1-(4-(1,2-diaminoethyl)benzyl)pyrrolidin-3-yl)thio)-6-((R)-1-hydroxyethyl)-4-methyl-7-oxo-1-azabicyclo[3.2.0]hept-2-ene-2-carboxylic acid] | 1 to 4 µg/mL | < 1 µg/mL | 8 to 32 µg/mL | 8 to 32 µg/mL | – | – | – | – | – | – | – | – | – | – | – | –
2 | C[C@@H](O)[C@H]1C(=O)N2C(C(=O)O)=C(S[C@@H]3CCN(CC4CCN(C)CC4)C3)[C@H](C)[C@H]12 [Example 39, (4R,5S,6S)-6-((R)-1-hydroxyethyl)-4-methyl-3-(((R)-1-((1-methylpiperidin-4-yl)methyl)pyrrolidin-3-yl)thio)-7-oxo-1-azabicyclo[3.2.0]hept-2-ene-2-carboxylic acid] | – | – | – | – | 1 to 4 µg/mL | < 1 µg/mL | 1 to 4 µg/mL | 1 to 4 µg/mL | 1 to 4 µg/mL | < 1 µg/mL | 1 to 4 µg/mL | – | – | – | – | –
3 | C[C@@H](O)[C@H]1C(=O)N2C(C(=O)O)=C(S[C@@H]3CCN(CC4CCN(CCO)CC4)C3)[C@H](C)[C@H]12 [Example 40, (4R,5S,6S)-6-((R)-1-hydroxyethyl)-3-(((R)-1-((1-(2-hydroxyethyl)piperidin-4-yl)methyl)pyrrolidin-3-yl)thio)-4-methyl-7-oxo-1-azabicyclo[3.2.0]hept-2-ene-2-carboxylic acid] | – | – | – | – | 8 to 32 µg/mL | < 1 µg/mL | 1 to 4 µg/mL | 1 to 4 µg/mL | 1 to 4 µg/mL | < 1 µg/mL | 1 to 4 µg/mL | – | – | – | – | –
4 | C[C@@H](O)[C@H]1C(=O)N2C(C(=O)O)=C(S[C@@H]3CCN(CC4CCN(CC(N)=O)CC4)C3)[C@H](C)[C@H]12 [Example 41, (4R,5S,6S)-3-(((R)-1-((1-(2-amino-2-oxoethyl)piperidin-4-yl)methyl)pyrrolidin-3-yl)thio)-6-((R)-1-hydroxyethyl)-4-methyl-7-oxo-1-azabicyclo[3.2.0]hept-2-ene-2-carboxylic acid] | – | – | – | – | 8 to 32 µg/mL | < 1 µg/mL | 8 to 32 µg/mL | 1 to 4 µg/mL | 1 to 4 µg/mL | < 1 µg/mL | 1 to 4 µg/mL | – | – | – | – | –
5 | C[C@@H](O)[C@H]1C(=O)N2C(C(=O)O)=C(S[C@@H]3CCN(CC4CCNCC4F)C3)[C@H](C)[C@H]12 (stereo partly drawn) [Example 45, (4R,5S,6S)-3-(((3R)-1-((3-fluoropiperidin-4-yl)methyl)pyrrolidin-3-yl)thio)-6-((R)-1-hydroxyethyl)-4-methyl-7-oxo-1-azabicyclo[3.2.0]hept-2-ene-2-carboxylic acid] | – | – | – | – | – | – | – | – | – | < 1 µg/mL | 1 to 4 µg/mL | 1 to 4 µg/mL | < 1 µg/mL | 1 to 4 µg/mL | 1 to 4 µg/mL | 1 to 4 µg/mL
6 | C[C@@H](O)[C@H]1C(=O)N2C(C(=O)O)=C(S[C@@H]3CCN(CC4CCNCC4(F)F)C3)[C@H](C)[C@H]12 (stereo partly drawn) [Example 46, (4R,5S,6S)-3-(((3R)-1-((3,3-difluoropiperidin-4-yl)methyl)pyrrolidin-3-yl)thio)-6-((R)-1-hydroxyethyl)-4-methyl-7-oxo-1-azabicyclo[3.2.0]hept-2-ene-2-carboxylic acid] | – | – | – | – | 8 to 32 µg/mL | < 1 µg/mL | 8 to 32 µg/mL | 1 to 4 µg/mL | 1 to 4 µg/mL | < 1 µg/mL | 1 to 4 µg/mL | – | – | – | – | –
7 | C[C@@H](O)[C@H]1C(=O)N2C(C(=O)O)=C(S[C@@H]3CCN(CC4CCN(C(=O)CN)CC4)C3)[C@H](C)[C@H]12 [Example 47, (4R,5S,6S)-3-(((R)-1-((1-glycylpiperidin-4-yl)methyl)pyrrolidin-3-yl)thio)-6-((R)-1-hydroxyethyl)-4-methyl-7-oxo-1-azabicyclo[3.2.0]hept-2-ene-2-carboxylic acid] | – | – | – | – | 8 to 32 µg/mL | < 1 µg/mL | 1 to 4 µg/mL | 1 to 4 µg/mL | 1 to 4 µg/mL | < 1 µg/mL | 1 to 4 µg/mL | – | – | – | – | –
8 | CNCC(=O)N1CCC(CN2CC[C@@H](SC3=C(C(=O)O)N4C(=O)[C@H]([C@@H](C)O)[C@H]4[C@H]3C)C2)CC1 [Example 48, (4R,5S,6S)-6-((R)-1-hydroxyethyl)-4-methyl-3-(((R)-1-((1-(methylglycyl)piperidin-4-yl)methyl)pyrrolidin-3-yl)thio)-7-oxo-1-azabicyclo[3.2.0]hept-2-ene-2-carboxylic acid] | – | – | – | – | 8 to 32 µg/mL | < 1 µg/mL | 1 to 4 µg/mL | 1 to 4 µg/mL | 1 to 4 µg/mL | < 1 µg/mL | 1 to 4 µg/mL | – | – | – | – | –
9 | C[C@@H](O)[C@H]1C(=O)N2C(C(=O)O)=C(S[C@@H]3CCN(C[C@H]4CCN(C(=N)N)C4)C3)[C@H](C)[C@H]12 [Example 52, (4R,5S,6S)-3-(((R)-1-(((R)-1-carbamimidoylpyrrolidin-3-yl)methyl)pyrrolidin-3-yl)thio)-6-((R)-1-hydroxyethyl)-4-methyl-7-oxo-1-azabicyclo[3.2.0]hept-2-ene-2-carboxylic acid] | – | – | – | – | 1 to 4 µg/mL | < 1 µg/mL | 1 to 4 µg/mL | < 1 µg/mL | < 1 µg/mL | < 1 µg/mL | < 1 µg/mL | – | – | – | – | –
10 | C[C@@H](O)[C@H]1C(=O)N2C(C(=O)O)=C(S[C@@H]3CCN(C[C@@H]4CCN(C(=N)N)C4)C3)[C@H](C)[C@H]12 [Example 54, (4R,5S,6S)-3-(((R)-1-(((S)-1-carbamimidoylpyrrolidin-3-yl)methyl)pyrrolidin-3-yl)thio)-6-((R)-1-hydroxyethyl)-4-methyl-7-oxo-1-azabicyclo[3.2.0]hept-2-ene-2-carboxylic acid] | – | – | – | – | 1 to 4 µg/mL | < 1 µg/mL | 1 to 4 µg/mL | < 1 µg/mL | 1 to 4 µg/mL | < 1 µg/mL | < 1 µg/mL | – | – | – | – | –
11 | C[C@@H](O)[C@H]1C(=O)N2C(C(=O)O)=C(SC3CN(C4CCNCC4)C3)[C@H](C)[C@H]12 [Example 55, (4R,5S,6S)-6-((R)-1-hydroxyethyl)-4-methyl-7-oxo-3-((1-(piperidin-4-yl)azetidin-3-yl)thio)-1-azabicyclo[3.2.0]hept-2-ene-2-carboxylic acid] | – | – | – | – | 1 to 4 µg/mL | < 1 µg/mL | 1 to 4 µg/mL | 1 to 4 µg/mL | < 1 µg/mL | < 1 µg/mL | 1 to 4 µg/mL | – | – | – | – | –
12 | C[C@@H](O)[C@H]1C(=O)N2C(C(=O)O)=C(SC3CN(CCC4CCNCC4)C3)[C@H](C)[C@H]12 [Example 56, (4R,5S,6S)-6-((R)-1-hydroxyethyl)-4-methyl-7-oxo-3-((1-(2-(piperidin-4-yl)ethyl)azetidin-3-yl)thio)-1-azabicyclo[3.2.0]hept-2-ene-2-carboxylic acid] | – | – | – | – | 1 to 4 µg/mL | < 1 µg/mL | 1 to 4 µg/mL | 1 to 4 µg/mL | 1 to 4 µg/mL | < 1 µg/mL | 1 to 4 µg/mL | – | – | – | – | –
